Data reported in patent publication US10597388B2, “Pyridazinone herbicides” (FMC CORPORATION, priority 2014, dated 2020).

Legend:
Format in all cases: in vivo
[1] = tested on: ryegrass, Italian (Italian ryegrass, Lolium multiflorum); assay: Test C greenhouse herbicide test, pre- and postemergence
In short: (§1)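 Greenhouse pots; pre-em on seeded loam:sand blend, post-em on 2–18 cm plants (1–4 leaf) in sphagnum peat/vermiculite medium. Formulation: non-phytotoxic solvent + surfactant. Read-out: visual % control (0–100) vs controls at 13–15 d.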

[2] = tested on: morningglory (Ipomoea coccinea); assay: as above
In short: as §1

[3] = tested on: barnyardgrass (Echinochloa crus-galli); assay: as above
In short: as §1

[4] = tested on: johnsongrass (Sorghum halepense); assay: as above
In short: as §1

[5] = tested on: ragweed (common ragweed, Ambrosia elatior); assay: as above
In short: as §1

[6] = tested on: lambsquarters (Chenopodium album); assay: as above
In short: as §1

[7] = tested on: wheat (winter wheat, Triticum aestivum); assay: as above
In short: as §1

[8] = tested on: crabgrass, large (large crabgrass, Digitaria sanguinalis); assay: as above
In short: as §1

[9] = tested on: foxtail, giant (giant foxtail, Setaria faberii); assay: as above
In short: as §1

[10] = tested on: oilseed rape (Brassica napus); assay: as above
In short: as §1

[11] = tested on: galium (catchweed bedstraw, Galium aparine); assay: as above
In short: as §1

[12] = tested on: blackgrass (Alopecurus myosuroides); assay: Test A greenhouse herbicide test, postemergence
In short: (§2)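 Seedlings in a loam soil and sand mix received formulated compound postemergence at the one- to two-leaf stage. Greenhouse holding lasts approximately 10 d, then injury is scored visually relative to untreated plants, 0 meaning no effect and 100 complete control.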

[13] = tested on: galium (catchweed bedstraw, Galium aparine); assay: Test A greenhouse herbicide test, postemergence
In short: as §2

[14] = Postemergence, 125 g ai/ha, scale 0 to 100, 0 is no effect, 100 is complete control
[15] = Postemergence, 250 g ai/ha, scale 0 to 100, 0 no effect, 100 complete control, 13 to 15 d
[16] = Preemergence, 31 g ai/ha, scale 0 to 100, 0 is no effect, 100 is complete control
[17] = Preemergence, 62 g ai/ha, scale 0 to 100, 0 is no effect, 100 is complete control
[18] = Preemergence, 125 g ai/ha, scale 0 to 100, 0 is no effect, 100 is complete control
[19] = Preemergence, 250 g ai/ha, scale 0 to 100, 0 no effect, 100 complete control
[20] = postemergence, 62 g ai/ha, scale 0 to 100, 0 no effect, 100 complete control
[21] = 125 g ai/ha, 0 to 100 scale where 0 is no effect and 100 is complete control
[22] = 500 g ai/ha, 0 to 100 scale, 0 is no effect, 100 is complete control

Cc1sc2ccccc2c1-c1c(O)c(Cl)nn(C)c1=O [Compound 89]
30: Plant response rating, Ragweed [5, 16] | Plant response rating, Foxtail, Giant [9, 15] | Plant response rating, Oilseed Rape [10, 18] | Plant response rating, Blackgrass [12, 21]
25: Plant response rating, Barnyardgrass [3, 18] | Plant response rating, Crabgrass, Large [8, 18]
5: Barnyardgrass plant response rating ([3]; Postemergence, 31 g ai/ha, 0 to 100 scale (0 no effect, 100 complete control)) | Plant response rating, Barnyardgrass [3, 16] | Plant response rating, Johnsongrass [4, 15] | Johnsongrass plant response rating [4, 19] | Plant response rating, Crabgrass, Large [8, 14] | Crabgrass, Large plant response rating [8, 20]
98: Plant response rating, Morningglory [2, 14] | Plant response rating, Morningglory [2, 15] | Plant response rating, Ragweed [5, 15] | Plant response rating, Lambsquarters [6, 18] | Plant response rating, Galium [11, 17] | Plant response rating, Galium [11, 18] | Galium plant response rating [11, 19]
10: Plant response rating, Crabgrass, Large [8, 15] | Plant response rating, Foxtail, Giant [9, 16] | Foxtail, Giant plant response rating [9, 20]
75: Plant response rating, Ryegrass, Italian [1, 14] | Ryegrass, Italian plant response rating [1, 20] | Plant response rating, Johnsongrass [4, 17] | Crabgrass, Large plant response rating [8, 19] | Foxtail, Giant plant response rating [9, 19]
80: Plant response rating, Ryegrass, Italian [1, 15] | Plant response rating, Ryegrass, Italian [1, 17] | Plant response rating, Morningglory [2, 16] | Plant response rating, Ragweed [5, 17] | Plant response rating, Ragweed [5, 18]
100: Plant response rating, Lambsquarters [6, 14] | Plant response rating, Lambsquarters [6, 15]
60: Plant response rating, Foxtail, Giant [9, 17] | Blackgrass plant response rating [12, 22]
15: Plant response rating, Barnyardgrass [3, 17] | Barnyardgrass plant response rating [3, 20]
0: Plant response rating, Johnsongrass [4, 14] | Plant response rating, Johnsongrass [4, 16] | Plant response rating, Johnsongrass [4, 18] | Johnsongrass plant response rating [4, 20] | Plant response rating, Wheat [7, 14] | Plant response rating, Wheat [7, 15] | Plant response rating, Wheat [7, 16] | Plant response rating, Wheat [7, 17] | Plant response rating, Wheat [7, 18] | Wheat plant response rating [7, 19] | Wheat plant response rating [7, 20] | Plant response rating, Crabgrass, Large [8, 17] | Plant response rating, Oilseed Rape [10, 14] | Plant response rating, Oilseed Rape [10, 15] | Plant response rating, Oilseed Rape [10, 16] | Plant response rating, Oilseed Rape [10, 17] | Oilseed Rape plant response rating [10, 20]
20: Plant response rating, Ryegrass, Italian [1, 16] | Plant response rating, Barnyardgrass [3, 14] | Plant response rating, Crabgrass, Large [8, 16] | Plant response rating, Foxtail, Giant [9, 14]
65: Barnyardgrass plant response rating [3, 19] | Plant response rating, Foxtail, Giant [9, 18]
40: Plant response rating, Barnyardgrass [3, 15] | Plant response rating, Lambsquarters [6, 16]
85: Plant response rating, Morningglory [2, 17] | Plant response rating, Morningglory [2, 18] | Plant response rating, Lambsquarters [6, 17]
95: Morningglory plant response rating [2, 20] | Plant response rating, Galium [11, 14] | Plant response rating, Galium [11, 15] | Plant response rating, Galium [11, 16] | Galium plant response rating [11, 20]
90: Plant response rating, Ryegrass, Italian [1, 18] | Ryegrass, Italian plant response rating [1, 19] | Morningglory plant response rating [2, 19] | Plant response rating, Ragweed [5, 14] | Ragweed plant response rating [5, 19] | Ragweed plant response rating [5, 20] | Lambsquarters plant response rating [6, 19] | Lambsquarters plant response rating [6, 20] | Oilseed Rape plant response rating [10, 19] | Plant response rating, Galium [13, 21] | Galium plant response rating [13, 22]
